Source: patent US20240390328A1, “PHARMACEUTICAL COMPOSITION CONTAINING AS ACTIVE INGREDIENT COMPOUND CONJUGATED TO G4 STRUCTURES OF CORONAVIRUSES FOR PREVENTION OR TREATMENT OF CORONAVIRUS INFECTIOUS DISEASES” (priority 2020, published 2024)

Tests used:
Assay type in all cases: binding
[1] = system: SARS-COV-2 RNA G4, position 644 (NsP1); test: CD thermal melting analysis, G4 No. 2; conditions: G4 No. 2, position 644, NsP1; 15 μM RNA G4, 30 μM compound
Description: (§1) For melting, the samples were heated at 25 to 95° C. at 2° C./min with a data pitch of 0.5° C. CD melting analyses were performed with and without G4-binding compounds. The ratio of RNA: G4-binding compound was set to a molar ratio of 1:2. 15 μM RNA G4 was treated with 30 μM G4-binding compound and incubated at room temperature in a buffer comprising 10 mM Tris-HCl (pH 7.5) and 100 mM KCl for 30 minutes. Ellipticity was measured at 265 nm. Thereafter, data were normalized and plotted in OriginPro 2017 to calculate Tm values.
(§2) In addition, 15 μM RNA G4 was treated with 30 μM compound and incubated, and a CD thermal melting curve of RNA G4 (15 μM) was obtained in the presence or absence of the G4-binding compound. Furthermore, the effect of G4-binding compounds on the stability of SARS-COV-2 G4 was confirmed by measuring the difference in melting temperature (ΔTm). The results are illustrated in FIGS. 6A and 6B.

[2] = system: SARS-COV-2 RNA G4, position 8687 (NsP4); test: CD thermal melting analysis, G4 No. 9; conditions: G4 No. 9, position 8687, NsP4; 15 μM RNA G4, 30 μM compound
Description: as §1, §2

[3] = system: SARS-COV-2 RNA G4, position 1463 (NsP2); test: CD thermal melting analysis, G4 No. 3; conditions: G4 No. 3, position 1463, NsP2; 15 μM RNA G4, 30 μM compound
Description: as §1, §2

[4] = system: SARS-COV-2 RNA G4, position 2714 (NsP2 + NsP3); test: CD thermal melting analysis, G4 No. 5; conditions: G4 No. 5, position 2714, NsP2 + NsP3; 15 μM RNA G4, 30 μM compound
Description: as §1, §2

[5] = system: SARS-COV-2 RNA G4, position 15448 (NsP12); test: CD thermal melting analysis, G4 No. 14; conditions: G4 No. 14, position 15448, NsP12; 15 μM RNA G4, 30 μM compound
Description: as §1, §2

[6] = system: SARS-COV-2 RNA G4, position 26746 (Membrane protein); test: CD thermal melting analysis, G4 No. 21; conditions: G4 No. 21, position 26746, Membrane protein; 15 μM RNA G4, 30 μM compound
Description: as §1, §2

[7] = system: SARS-COV-2 RNA G4, position 14947 (NsP12); test: CD thermal melting analysis, G4 No. 12; conditions: G4 No. 12, position 14947, NsP12; 15 μM RNA G4, 30 μM compound
Description: as §1, §2

[8] = system: SARS-COV-2 RNA G4, position 15208 (NsP12); test: CD thermal melting analysis, G4 No. 13; conditions: G4 No. 13, position 15208, NsP12; 15 μM RNA G4, 30 μM compound
Description: as §1, §2

[9] = system: SARS-COV-2 RNA G4, position 28903 (Nucleocapsid protein); test: CD thermal melting analysis, G4 No. 23; conditions: G4 No. 23, position 28903, Nucleocapsid protein; 15 μM RNA G4, 30 μM compound
Description: as §1, §2

[10] = system: SARS-COV-2 RNA G4, position 18296 (NsP12); test: CD thermal melting analysis, G4 No. 15; conditions: G4 No. 15, position 18296, NsP12; 15 μM RNA G4, 30 μM compound
Description: as §1, §2

[11] = system: SARS-COV-2 RNA G4, position 4261 (NsP3); test: CD thermal melting analysis, G4 No. 8; conditions: G4 No. 8, position 4261, NsP3; 15 μM RNA G4, 30 μM compound
Description: as §1, §2

[12] = system: SARS-COV-2 RNA G4, position 13385 (NsP10); test: CD thermal melting analysis, G4 No. 11; conditions: G4 No. 11, position 13385, NsP10; 15 μM RNA G4, 30 μM compound
Description: as §1, §2

[13] = system: SARS-COV-2 RNA G4, position 24215 (Surface glycoprotein); test: CD thermal melting analysis, G4 No. 17; conditions: G4 No. 17, position 24215, Surface glycoprotein; 15 μM RNA G4, 30 μM compound
Description: as §1, §2

[14] = system: 25 G4s predicted for SARS-COV-2; test: CD thermal melting analysis, comparison of ΔTm over all G4s; conditions: for effect on stability of SARS-COV-2 G4 (ΔTm), in words: 15 μM RNA G4, 30 μM compound, FIGS. 6A and 6B; for number of G4s Destabilized: of the 25 SARS-COV-2 G4s
[15] = system: SARS-COV-2 RNA G4, position 3467 (NsP3); test: CD thermal melting analysis, G4 No. 6; conditions: G4 No. 6, position 3467, NsP3; 15 μM RNA G4, 30 μM compound
Description: as §1, §2

[16] = system: SARS-COV-2 RNA G4, position 4162 (NsP3); test: CD thermal melting analysis, G4 No. 7; conditions: G4 No. 7, position 4162, NsP3; 15 μM RNA G4, 30 μM compound
Description: as §1, §2

[17] = system: SARS-COV-2 RNA G4, position 353 (NsP1); test: CD thermal melting analysis, G4 No. 1; conditions: G4 No. 1, position 353, NsP1; 15 μM RNA G4, 30 μM compound
Description: as §1, §2

[18] = system: SARS-COV-2 RNA G4, position 29123 (Nucleocapsid protein); test: CD thermal melting analysis, G4 No. 24; conditions: G4 No. 24, position 29123, Nucleocapsid protein; 15 μM RNA G4, 30 μM compound
Description: as §1, §2

[19] = system: SARS-COV-2 RNA G4, position 10261 (NsP5); test: CD thermal melting analysis, G4 No. 10; conditions: G4 No. 10, position 10261, NsP5; 15 μM RNA G4, 30 μM compound
Description: as §1, §2

Row | Structure (SMILES) | Tm in ° C. with compound [1] | ΔTm [1] | Tm in ° C. with compound [2] | ΔTm [2] | Tm in ° C. with compound [3] | ΔTm [3] | Tm in ° C. with compound [4] | ΔTm [4] | Tm in ° C. with compound [5] | ΔTm [5] | Tm in ° C. with compound [6] | ΔTm [6] | Tm in ° C. with compound [7] | ΔTm [7] | Tm in ° C. with compound [8] | ΔTm [8] | Tm in ° C. with compound [9] | ΔTm [9] | Tm in ° C. with compound [10] | ΔTm [10] | other results
1 | CN1CCC[C@H]1CCNC(=O)c1cn2c3c(c(N4CCC(c5cnccn5)C4)c(F)cc3c1=O)Oc1cc3ccccc3cc1-2 (stereo partly drawn) [CX-3543, 15-fluoro-N-[2-[(2S)-1-methylpyrrolidin-2-yl]ethyl]-18-oxo-14-(3-pyrazin-2-ylpyrrolidin-1-yl)-12-oxa-1-azapentacyclo [11.7.1.0^2,11.0^4,9.0^17,21]henicosa-2,4,6,8, 10, 13 (21), 14,16,19-nonaene-19-carboxamide] | 53.32 °C | 5.59 °C | 49.83 °C | 2.97 °C | 66.55 °C | 11.03 °C | 57.69 °C | −13.45 °C | 58.58 °C | 5.96 °C | 59.29 °C | −3.37 °C | 58.11 °C | 0.9 °C | 63.87 °C | 6.7 °C | 63.45 °C | 6.34 °C | 63.64 °C | 4.81 °C | Tm in ° C. with compound [11]: 63.89 °C; ΔTm [11]: 13.58 °C; Tm in ° C. with compound [12]: 52.87 °C; ΔTm [12]: 7.27 °C; Tm in ° C. with compound [13]: 57.16 °C; ΔTm [13]: 1.74 °C; effect on stability of SARS-COV-2 G4 (ΔTm), in words [14]: did not show any noticeable change; number of G4s Destabilized [14]: 6; Tm in ° C. with compound [15]: 63.54 °C; ΔTm [15]: −2.01 °C; Tm in ° C. with compound [16]: 58.94 °C; ΔTm [16]: 2.05 °C; Tm in ° C. with compound [17]: 72.64 °C; ΔTm [17]: 1.05 °C; Tm in ° C. with compound [18]: 62.59 °C; ΔTm [18]: 8.19 °C; Tm in ° C. with compound [19]: 50.24 °C; ΔTm [19]: 2.35 °C
2 | NCCOc1cc(C(=O)Nc2cc(OCCN)c3ccccc3n2)nc(C(=O)Nc2cc(OCCN)c3ccccc3n2)c1 [PDS, 4-(2-aminoethoxy)-N2,N6-bis(4-(2-aminoethoxy)quinolin-2-yl)pyridine-2,6-dicarboxamide] | 70.59 °C | 22.86 °C | 84.44 °C | 37.58 °C | 60.04 °C | 4.52 °C | 86.49 °C | 15.35 °C | 56.5 °C | 3.88 °C | 68.77 °C | 6.11 °C | 82.16 °C | 24.95 °C | 60.16 °C | 2.99 °C | 60.46 °C | 3.35 °C | 82.4 °C | 23.57 °C | Tm in ° C. with compound [11]: 79.18 °C; ΔTm [11]: 28.87 °C; Tm in ° C. with compound [12]: 63.07 °C; ΔTm [12]: 17.47 °C; Tm in ° C. with compound [13]: 62.93 °C; ΔTm [13]: 7.51 °C; effect on stability of SARS-COV-2 G4 (ΔTm), in words [14]: significantly stabilized most G4s; proportion of the G4s with ΔTm>20° C. ([14]; among the 25 G4s predicted for SARS-COV-2): 36%; number of G4s Destabilized [14]: 2; Tm in ° C. with compound [15]: 88.65 °C; ΔTm [15]: 23.1 °C; Tm in ° C. with compound [16]: 56.03 °C; ΔTm [16]: −0.86 °C; Tm in ° C. with compound [17]: 87.66 °C; ΔTm [17]: 16.07 °C; Tm in ° C. with compound [18]: 73.83 °C; ΔTm [18]: 19.43 °C; Tm in ° C. with compound [19]: 60.66 °C; ΔTm [19]: 12.77 °C
